# Assay results reported in patent US6169104A, “Di-aryl ethers and their derivatives as anti-cancer agents” (Large Scale Biology Corporation, priority 1998, dated 2001).
# Where two headings read alike, the source gives them in different places.
# Experiments:
# [1] = test system: angiogenesis induced by hFGF-B in the CAM; experiment: Chick chorioallantoic membrane (CAM) assay, 14C-proline incorporation into collagenous protein; type: in vivo, chick embryo
# Experimental: BTO-964 [methyl 3,5-diiodo-4(4'-methoxyphenoxy) benzaldehyde], and BTO-967 [methyl 3,5-diiodo-4(4'-methoxyphenoxy)-thiobenzoate] were tested in the CAm assay. The endpoint of the CAM assay was a quantiative determination of basement membrane biosynthesis by measuring the incorporation of ^14 C-proline into Type IV collagenous protein.
# The CAM assay involves the development of live chick embryos in Petri dishes under special sterile conditions. Therefore, only limited numbers of embryos can be used for evaluation of compounds in a single experiment. BTO-964 and BTO-967 was tested in separate assays. A known angiogenesis inhibitor, 2-methoxyestradiol (2-ME), was used as the positive control, and human fibroblast growth factor (hFGF) was used to induce angiogenesis in the CAM.
# For testing, a minimum amount of acetone-methanol (1:1) was added to the test compounds for sterilization. The acetone-methanol mixture was then evaporated to dryness in a sterile hood. The compounds were dissolved in dimethyl sulfoxide (DMSO) first and then diluted with saline containing methylcellulose. The final concentrations were 2% DMSO and 0.5% methylcellulose. all test solutions were added to each CAM in […] aliquots.
# Fresh fertile eggs were incubated for three days in a standard egg incubator. On Day 3, eggs were cracked under sterile conditions and embryos were placed in 20×100 mm plastic Petri dishes and cultivated at 37° C. in an embryo incubator with a water reservoir on the bottom shelf. Air was continuously bubbled into the water reservoir by using a small pump so that the humidity in the incubator was kept constant. Observations were made daily to ensure that all embryos were healthy. Dead or unhealthy embryos were removed from the incubator immediately to avoid contamination. On Day 9, a sterile silicone ring cup was placed on each CAM and 0.5 mCi of ^14 C-proline with or without the test compound plus 2.5 ng of hFGF dissolved in saline containing 0.5% methylcellulose was delivered into each ring cup in a sterile hood. 2-ME was tested in parallel to serve as a reference compound. After addition of test materials, the embryos were returned to the incubator and cultivation continued. On Day 12, all embryos were transferred to a cold room at 4-10° C.
# Using the procedure outlined in Maragoudakis, et al., (1989) J. Pharm. Exp. Ther. 251:679-682, the embryos were placed on ice and a piece of CAM 10 mm in diameter was cut off under each ring cup and placed in a separate tube. To each tube was added 1.0 ml of phosphate-buffered saline (PBS, pH 7.3) containing 0.11 mg cycloheximide and 0.17 mg dipyridyl. The tubes were placed in a boiling water bath for 10 min and then cooled to room temperature. The PBS in each tube was discarded after centrifugation at 3000×G for 10 min. The CAM residue was washed once with 3 ml of 15% TCA and then three times with 3 ml of 5% TCA. Centrifugation was carried out as described above between each washing. At this point all non-protein bound radioactivity was removed, and the CAM containing the newly synthesized ^14 C-collagenous protein was suspended in 0.9 ml of 0.1 N NaOH and 1.1 ml of HEPES buffer at pH 7.4. The pH of the sample was neutralized with 0.8 N HCl, using phenol red as indicator.
# To digest the ^14 C-collagenous protein, 7.5 units of collagenase and 500 nmol of calcium chloride in […] of HEPES buffer was added to the above samples, and mixtures were incubated at 37° C. for 4 h. The reaction was stopped by adding 1.0 ml of 20% TCA containing 5 mg of tannic acid into each tube. After vortex mixing, the samples were centrifuged at 3000×G for 10 min. An aliquot of the clear supernatant was taken for scintillation counting to quantitate the radiolabeled tripeptides corresponding to basement membrane collagen and other collagenous materials synthesized by the CAM from ^14 C-proline. The CAM pellets in each tube were solubilized in 0.5 ml of 1.0 N NaOH by boiling in a water bath for 5 min. […]
# [2] = test system: A549 (non-small cell lung); experiment: In vitro cytotoxicity screen, alamar Blue assay; type: cell-based; settings: Homo sapiens
# Experimental: (§1) Human tumor cell lines were exposed continuously to varying concentrations of test agents, i.e., BTO-956, BTO-964, BTO966 and BTO-967) and the viability of the cells was measured at set time points (1, 3, and 7 days) using the alamar Blue™ assay. […] This fluorescence can be measured with a fluorimeter, whereby the signal is directly proportional to cell number.
# (§2) Various tumor cell lines of human origin representing a wide diversity of cancer pheno- and genotypes were exposed in vitro to the agents to evaluate the drug's effective range. Tumor lines screened included MDA MB 231 (breast), MCF-7 (breast), MDA MB 468 (breast), Siha (squamous cell carcinoma), A549 (non-small cell lung), HL-60 (leukemia), Ovcar-3 (ovarian). The test agents were prepared in serial dilutions from 10 mM stock solutions in DMSO yielding a 66-fold dose range of 20 μM, 10 μM, 3 μM, 1 μM and 0.3 μM concentrations. In each case, cells were maintained at 37° C. under 5 percent CO2 in air. All cell lines were incubated in Dulbecco's modified Eagle medium (DMEM) supplemented with 10% heat-inactivated fetal bovine serum and graded doses of BTO-956, 964, 966, or 967. 5-Fluorouracil (5-FU) was included as a positive control in experiments with two of the cell lines. The experiments were conducted in 96-well tissue culture plates (Falcon) with an initial seeding density of 1000 cells per well in 250 μl aliquots. The next day, medium was replaced with 100 μl of drug dilutions in triplicate.
# (§3) After a 7 day exposure to the various agents, the alamarBlue dye was diluted to 20% in DMEM, and 100 μl was added to each well. The cells were incubated for 8 hours until obvious color changes indicated sufficient amounts of reduced dye for quantitation. Relative cell number was evaluated by florimetry on a Millipore 2300 CytoFluor fluorescence measurement system. Measurements were taken directly from 96-well plates after excitation at 560 nm with concomitant emission at 590 nm.
# MDA MB 231 (breast) = experiment: In vitro cytotoxicity screen, alamar Blue assay; type: cell-based; settings: Homo sapiens
# Experimental: as §1, §2, §3
# MCF-7 (breast) = experiment: In vitro cytotoxicity screen, alamar Blue assay; type: cell-based; settings: Homo sapiens, MCF7, 168 h, 7 days post exposure
# Experimental: as §1, §2, §3
# MDA MB 468 (breast) = experiment: In vitro cytotoxicity screen, alamar Blue assay; type: cell-based; settings: Homo sapiens, 168 h, 7 days post exposure
# Experimental: as §1, §2, §3
# Ovcar-3 (ovarian) = experiment: In vitro cytotoxicity screen, alamar Blue assay; type: cell-based; settings: Homo sapiens, 168 h, 7 days post exposure
# Experimental: as §1, §2, §3
# [3] = test system: Siha (squamous cell carcinoma); experiment: In vitro cytotoxicity screen, alamar Blue assay; type: cell-based; settings: Homo sapiens, 168 h, 7 days post exposure
# Experimental: as §1, §2, §3
# [4] = test system: Human leukemia (HL60) cells; experiment: In vitro metabolism in human leukemia cells with and without rat liver S9; type: cell-based; settings: 4 hr incubation with vs without rat liver S9, cells counted 3 days later (FIG. 2)
# Experimental: FIG. 2 illustrates the in vitro metabolism of BTO-956, 964, 966, and 967 in human leukemia cells. In this experiments, human leukemia cells (HL60) were incubated for 4 hours in the presence of BTO-956, BTO-964, BTO-966 or BTO-967, with (closed symbols) and without (open symbols) rat liver microsome fraction S9. Following the 4 hr exposure to drug and S9, the cells were rinsed and replated at a density of 2×10^5 cells per ml, and counted 3 days later.
# To test for either of these possibilities, the compounds, i.e., BTO-956, BTO-964, BTO-966 and BTO-967, were incubated with a microsomal enzyme fraction, referred to as S9.
# Human leukemia (HL60) cells were used to evaluate drug metabolism. Exposure to the test article was performed in the presence and absence of S9, prepared from the liver of adult male rats given a single intraperitoneal injection of Arachlor 1254 (500 mg/kg). The S9 consisted of the 9000×G supernatant of liver homogenized in 0.25 M sucrose-100 mM phosphate buffer (pH 7.4) (Molecular Toxicology, Inc.). Cofactors were 1 mM NADP and 5 mM sodium isocitrate. On the day of exposure, cultures of cells, with or without the metabolism mixture, were incubated for 4 hours in RPMI containing 5% FBS and graded doses of BTO956, 964, 966, or 967. The test agents were prepared in serial dilutions from 10 mM stock solutions in DMSO yielding a dose range 100 μM, 50 μM, 25 μM, 10 μM and 5 μM concentrations and a final DMSO concentration of 1%. In each case, cells were maintained at 37° C. under 5 percent CO2 in air. The experiments were conducted in 6-well tissue culture plates (Falcon) with an initial seeding density of 2×10^6 cells per well in 2 ml aliquots. The test compounds were added immediately to the medium in duplicate cultures. Treatment solution was removed by a series of low-speed centrifugations to pellet the cells, followed by removal of the supernatant and resuspension of cells in fresh RPMI containing 10% FBS.
# TNF-α mRNA [5] = settings: 10 μM, without LPS
# Experimental: (§4) The murine macrophage PU5-1.8 cell line are purchased from the American Type Culture Collection (ATCC, Rockville, Md.). Cells are grown in DMEM medium supplemented with 100 mM sodium pyruvate, 0.1 mM nonessential amino acids, 2 mM glutamine and 5 % fetal bovine serum (Life Technologies, Staten Island, N.Y.). Cells are maintained in a humidified atmosphere of 5% CO2 -95% air at 37° C. Cells are passaged twice weekly by firmly tapping the side of the flask to dislodge the adherent cells. Both nonadherent and adherent cells are passaged. Exponentially growing cells are seeded at 5×10^5 /mL, 4 mL per 60-mm dish 24 h prior to the experiment. Test compounds are delivered in 1 mL volumes of the medium added to each dish at the start of the experiment. All dishes are incubated at 37° C. in 5% CO2 -95% air for 3 h.
# (§5) The Tumor Necrosis Factor (TNF-α) cDNA is obtained from the ATCC (Rockville, Md.). [α-^32 P]-dCTP (250 μCi) and nylon membranes (Hybond N) are obtained from Amersham (Arlington Heights, Ill.). […] Lipopolysaccharide (LPS) from Escherichia coli is purchased from DIFCO Laboratories (Detroit, Mich.). All plastic supplies are purchased from VWR Scientific products (San Francisco, Calif.). […]
# (§6) Hybridized bands are quantified by analyzing the images obtained by using a video densitometer (Applied Imaging Corporation, Santa Clara, Calif.). […]
# TNF-α mRNA [6] = experiment: cells; settings: Mus musculus, Macrophage, 3 h, read-out: inhibition of TNF-α mRNA accumulation
# Experimental: as §4, §5, §6
# [7] = 168 h, A549, 7 days post exposure, read-out: IC50
# [8] = 168 h, MDA MB 231, 7 days post exposure, read-out: IC50
compound,measurement,setting,value
"COc1cc2c(cc1O)CC[C@@H]1[C@@H]2CC[C@]2(C)[C@@H](O)CC[C@@H]12 [2-Methoxyestradiol, 2-methoxyestradiol, reference compound]",% Inhibition,"[1]; 8.3 μg/CAM, BTO-964 experiment",6%
same,14C-Proline Incorporated into Collagenous Protein (cpm/mg protein) (mean ± S.E.),"[1]; 8.3 μg/CAM, BTO-964 experiment, control 11200 ± 829",10499 ± 1372 cpm/mg_protein
same,% Inhibition,"[1]; 8.3 μg/CAM, BTO-967 experiment",9%
same,14C-Proline Incorporated into Collagenous Protein (cpm/mg protein) (mean ± S.E.),"[1]; 8.3 μg/CAM, BTO-967 experiment, control 6300 ± 696",5711 ± 1469 cpm/mg_protein
same,% Inhibition,"[1]; 25 μg/CAM, BTO-964 experiment",35%
same,14C-Proline Incorporated into Collagenous Protein (cpm/mg protein) (mean ± S.E.),"[1]; 25 μg/CAM, BTO-964 experiment, control 11200 ± 829",7303 ± 1424 cpm/mg_protein
same,% Inhibition,"[1]; 25 μg/CAM, BTO-967 experiment",20%
same,14C-Proline Incorporated into Collagenous Protein (cpm/mg protein) (mean ± S.E.),"[1]; 25 μg/CAM, BTO-967 experiment, control 6300 ± 696",5068 ± 1609 cpm/mg_protein
same,% Inhibition,"[1]; 75 μg/CAM, BTO-964 experiment",38%
same,14C-Proline Incorporated into Collagenous Protein (cpm/mg protein) (mean ± S.E.),"[1]; 75 μg/CAM, BTO-964 experiment, control 11200 ± 829",6984 ± 1022 cpm/mg_protein
same,% Inhibition,"[1]; 75 μg/CAM, BTO-967 experiment",38%
same,14C-Proline Incorporated into Collagenous Protein (cpm/mg protein) (mean ± S.E.),"[1]; 75 μg/CAM, BTO-967 experiment, control 6300 ± 696",3875 ± 891 cpm/mg_protein
"O=c1[nH]cc(F)c(=O)[nH]1 [5-FU, 5-Fluorouracil, reference compound]",IC50,"[2]; A549, 168 h",5.5 µM
same,IC50,"MDA MB 231 (breast); MDA-MB-231, 168 h",10 µM
"COC(=O)c1cc(I)c(Oc2ccc(OC)cc2)c(I)c1 [BTO-956, methyl 3,5-diiodo-4-(4'-methoxyphenoxy)benzoate]",IC50,[2]; [7],4 µM
same,IC50,MCF-7 (breast),5 µM
same,IC50,MDA MB 231 (breast); [8],10 µM
same,IC50,MDA MB 468 (breast),0.5 µM
same,IC50,Ovcar-3 (ovarian),< 0.3 µM
same,IC50,[3],0.5 µM
same,effect of metabolism by S9 on activity,[4],metabolized within the 4-hr incubation period to an inactive form
"COCc1cc(I)c(Oc2ccc(OC)cc2)c(I)c1 [BTO-966, 3,5-diiodo-4-(4'-methoxyphenoxy)benzyl methyl ether]",IC50,[2]; [7],> 30 µM
same,IC50,MCF-7 (breast),7 µM
same,IC50,MDA MB 231 (breast); [8],10 µM
same,IC50,MDA MB 468 (breast),7.5 µM
same,IC50,Ovcar-3 (ovarian),6.9 µM
same,IC50,[3],> 20 µM
same,effect of metabolism by S9 on activity,[4],activated to more cytotoxic products
"COc1cc2c(c(OC)c1OC)-c1ccc(OC)c(=O)cc1[C@@H](NC(C)=O)CC2 [colchicine, Colchicine]",effect on TNF-α mRNA expression,TNF-α mRNA [5],no effect
same,inhibition at 10 µM,TNF-α mRNA [6],68%
